What was measured:
[1] = target: EGFR^L858R/T790M/C797S (Homo sapiens, UniProt P00533, C797S/L858R/T790M); experiment: HTRF KinEASE-TK in vitro kinase assay, EGFR L858R/T790M/C797S (LTC); format: biochemical; details: EGFR L858R/T790M/C797S kinase inhibition
Description: (§1) The biological activity of compounds described herein can be studied according to standard methods known in the art. Methods can be used to study inhibition of EGFR, including mutant forms of EGFR comprising L858R, T790M, C797S, and/or Del19 mutations, or any combination thereof (e.g., L858R single, double, or triple mutants). Exemplary, non-limiting methods are described herein.
(§2) Assays using an in vitro kinase assay kit (HTRF KinEASE-TK kit) can be used to study the inhibitory activity of compounds described herein with respect to EGFR mutants such as ECFR^L858R, EGFR^L858R/T790M, and EGFR^L858R/T790M/C797S.
(§3) One hundred thirty six compounds were studied using the kinase (EGFR) and BA/F3 assays described herein, with more than 60% of the tested compounds providing IC50<50 nM values in all six assays. Accordingly, compounds of the invention are a new general class of kinase inhibitors, including potent inhibitors of EGFR mutants.
(§4) Exemplary kinase inhibition (Kinase) and anti-proliferation activity (Ba/F3) data are shown in Table 1 for certain compounds of the invention and are categorized according to the below legend.

[2] = target: EGFR^L858R/T790M (Homo sapiens, UniProt P00533, L858R/T790M); experiment: HTRF KinEASE-TK in vitro kinase assay, EGFR L858R/T790M (LT); format: biochemical; details: EGFR L858R/T790M kinase inhibition
Chain of EGFR^L858R/T790M (P00533 25-1210 T790M/L858R): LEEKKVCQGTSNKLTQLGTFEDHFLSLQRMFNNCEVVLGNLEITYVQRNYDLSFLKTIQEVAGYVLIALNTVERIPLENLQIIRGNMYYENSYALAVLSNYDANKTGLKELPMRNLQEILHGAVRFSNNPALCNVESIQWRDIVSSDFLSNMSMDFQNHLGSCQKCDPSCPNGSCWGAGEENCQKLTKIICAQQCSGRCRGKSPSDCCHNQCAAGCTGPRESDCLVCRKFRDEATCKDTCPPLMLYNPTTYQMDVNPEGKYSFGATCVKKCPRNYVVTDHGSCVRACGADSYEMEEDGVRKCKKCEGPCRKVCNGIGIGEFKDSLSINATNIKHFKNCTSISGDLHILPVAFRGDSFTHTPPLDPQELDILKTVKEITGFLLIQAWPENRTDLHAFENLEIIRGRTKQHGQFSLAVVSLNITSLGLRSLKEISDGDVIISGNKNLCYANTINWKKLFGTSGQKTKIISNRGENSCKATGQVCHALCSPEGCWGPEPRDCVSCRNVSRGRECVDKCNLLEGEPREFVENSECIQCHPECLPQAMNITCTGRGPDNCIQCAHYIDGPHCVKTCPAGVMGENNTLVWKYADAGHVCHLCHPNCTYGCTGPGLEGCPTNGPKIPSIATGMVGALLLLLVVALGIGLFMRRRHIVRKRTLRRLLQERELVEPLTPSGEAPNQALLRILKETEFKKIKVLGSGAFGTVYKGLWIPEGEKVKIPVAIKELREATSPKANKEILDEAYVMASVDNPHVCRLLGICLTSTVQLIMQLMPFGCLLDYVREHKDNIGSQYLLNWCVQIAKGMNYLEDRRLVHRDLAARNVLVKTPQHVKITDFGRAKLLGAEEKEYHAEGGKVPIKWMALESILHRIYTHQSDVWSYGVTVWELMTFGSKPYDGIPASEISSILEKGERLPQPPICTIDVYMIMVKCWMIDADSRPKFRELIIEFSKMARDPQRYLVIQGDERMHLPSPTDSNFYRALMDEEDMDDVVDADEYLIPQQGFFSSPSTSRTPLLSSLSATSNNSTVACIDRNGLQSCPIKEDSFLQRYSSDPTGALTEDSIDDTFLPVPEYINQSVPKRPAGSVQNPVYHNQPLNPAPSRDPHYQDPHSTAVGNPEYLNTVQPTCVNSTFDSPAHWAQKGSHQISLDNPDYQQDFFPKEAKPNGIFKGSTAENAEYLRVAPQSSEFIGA
Description: as §1, §2, §3, §4

[3] = target: EGFR^L858R (Homo sapiens, UniProt P00533, L858R); experiment: HTRF KinEASE-TK in vitro kinase assay, EGFR L858R (L); format: biochemical; details: EGFR L858R kinase inhibition
Description: as §1, §2, §3, §4

[4] = target: Ba/F3 EGFR-Del19/T790M/C797S (Homo sapiens, UniProt P00533, T790M/C797S, cells depend on it, form not given); experiment: Ba/F3 viability assay (CellTiter-Glo), EGFR-Del19/T790M/C797S (DTC); format: cell-based; details: Ba/F3 EGFR-Del19/T790M/C797S anti-proliferation; read-out: BAF3 DTC IC50
Chain of Ba/F3 EGFR-Del19/T790M/C797S (P00533 with tags, fused parts or gaps DEL746-750/T790M/C797S, form open): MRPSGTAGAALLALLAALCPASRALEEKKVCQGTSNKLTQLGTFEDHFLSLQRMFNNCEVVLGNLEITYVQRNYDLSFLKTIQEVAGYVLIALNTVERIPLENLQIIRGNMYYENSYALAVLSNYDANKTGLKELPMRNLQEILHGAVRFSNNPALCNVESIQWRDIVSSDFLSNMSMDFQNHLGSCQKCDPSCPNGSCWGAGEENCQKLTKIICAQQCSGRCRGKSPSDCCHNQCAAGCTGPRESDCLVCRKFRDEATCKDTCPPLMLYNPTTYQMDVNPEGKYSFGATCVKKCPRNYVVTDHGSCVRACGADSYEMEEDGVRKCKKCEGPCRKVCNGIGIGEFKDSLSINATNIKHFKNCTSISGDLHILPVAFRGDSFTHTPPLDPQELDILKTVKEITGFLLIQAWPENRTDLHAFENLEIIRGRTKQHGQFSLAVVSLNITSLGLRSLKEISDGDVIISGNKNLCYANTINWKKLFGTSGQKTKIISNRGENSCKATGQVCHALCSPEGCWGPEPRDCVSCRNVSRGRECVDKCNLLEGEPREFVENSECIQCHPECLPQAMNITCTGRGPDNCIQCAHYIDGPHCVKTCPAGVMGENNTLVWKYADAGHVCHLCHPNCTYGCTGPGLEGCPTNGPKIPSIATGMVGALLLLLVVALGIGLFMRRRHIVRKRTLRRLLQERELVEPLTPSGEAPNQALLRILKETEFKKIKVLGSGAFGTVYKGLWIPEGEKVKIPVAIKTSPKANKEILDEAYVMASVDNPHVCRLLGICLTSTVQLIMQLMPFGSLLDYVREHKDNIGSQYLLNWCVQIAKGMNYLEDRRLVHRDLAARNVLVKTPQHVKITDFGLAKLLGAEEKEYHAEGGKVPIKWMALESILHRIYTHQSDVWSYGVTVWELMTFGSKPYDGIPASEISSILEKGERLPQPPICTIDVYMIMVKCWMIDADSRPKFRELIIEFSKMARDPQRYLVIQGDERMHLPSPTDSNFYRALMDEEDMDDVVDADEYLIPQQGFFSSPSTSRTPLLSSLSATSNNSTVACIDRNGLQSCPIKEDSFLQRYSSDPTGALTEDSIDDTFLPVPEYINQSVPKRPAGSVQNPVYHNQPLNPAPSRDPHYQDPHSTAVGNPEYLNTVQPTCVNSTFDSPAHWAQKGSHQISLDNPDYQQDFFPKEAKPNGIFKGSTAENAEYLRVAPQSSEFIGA
Description: (§5) Inhibition of cell proliferation can be studied using Ba/F3 viability assays, including the Promega CellTiter-Glo cell viability assay. This assay can be used to study the effect of compounds described herein in the following assays: (1) Ba/F3 Parental; (2) Ba/F3 EGFR-Del19/T790M; (3); Ba/F3 EGFR-Del19/C797S; and (4) Ba/F3 EGFR-Del119/T790M/C797S.
as §3, §4

[5] = target: Ba/F3 EGFR-Del19/T790M (Homo sapiens, UniProt P00533, T790M, cells depend on it, form not given); experiment: Ba/F3 viability assay (CellTiter-Glo), EGFR-Del19/T790M (DT); format: cell-based; details: Ba/F3 EGFR-Del19/T790M anti-proliferation; read-out: BAF3 DT IC50
Description: as §5, §3, §4

[6] = target: Ba/F3 EGFR-Del19/C797S (Homo sapiens, UniProt P00533, C797S, cells depend on it, form not given); experiment: Ba/F3 viability assay (CellTiter-Glo), EGFR-Del19/C797S (DC); format: cell-based; details: Ba/F3 EGFR-Del19/C797S anti-proliferation; read-out: BAF3 DC IC50
Chain of Ba/F3 EGFR-Del19/C797S (P00533 with tags, fused parts or gaps DEL746-750/C797S, form open): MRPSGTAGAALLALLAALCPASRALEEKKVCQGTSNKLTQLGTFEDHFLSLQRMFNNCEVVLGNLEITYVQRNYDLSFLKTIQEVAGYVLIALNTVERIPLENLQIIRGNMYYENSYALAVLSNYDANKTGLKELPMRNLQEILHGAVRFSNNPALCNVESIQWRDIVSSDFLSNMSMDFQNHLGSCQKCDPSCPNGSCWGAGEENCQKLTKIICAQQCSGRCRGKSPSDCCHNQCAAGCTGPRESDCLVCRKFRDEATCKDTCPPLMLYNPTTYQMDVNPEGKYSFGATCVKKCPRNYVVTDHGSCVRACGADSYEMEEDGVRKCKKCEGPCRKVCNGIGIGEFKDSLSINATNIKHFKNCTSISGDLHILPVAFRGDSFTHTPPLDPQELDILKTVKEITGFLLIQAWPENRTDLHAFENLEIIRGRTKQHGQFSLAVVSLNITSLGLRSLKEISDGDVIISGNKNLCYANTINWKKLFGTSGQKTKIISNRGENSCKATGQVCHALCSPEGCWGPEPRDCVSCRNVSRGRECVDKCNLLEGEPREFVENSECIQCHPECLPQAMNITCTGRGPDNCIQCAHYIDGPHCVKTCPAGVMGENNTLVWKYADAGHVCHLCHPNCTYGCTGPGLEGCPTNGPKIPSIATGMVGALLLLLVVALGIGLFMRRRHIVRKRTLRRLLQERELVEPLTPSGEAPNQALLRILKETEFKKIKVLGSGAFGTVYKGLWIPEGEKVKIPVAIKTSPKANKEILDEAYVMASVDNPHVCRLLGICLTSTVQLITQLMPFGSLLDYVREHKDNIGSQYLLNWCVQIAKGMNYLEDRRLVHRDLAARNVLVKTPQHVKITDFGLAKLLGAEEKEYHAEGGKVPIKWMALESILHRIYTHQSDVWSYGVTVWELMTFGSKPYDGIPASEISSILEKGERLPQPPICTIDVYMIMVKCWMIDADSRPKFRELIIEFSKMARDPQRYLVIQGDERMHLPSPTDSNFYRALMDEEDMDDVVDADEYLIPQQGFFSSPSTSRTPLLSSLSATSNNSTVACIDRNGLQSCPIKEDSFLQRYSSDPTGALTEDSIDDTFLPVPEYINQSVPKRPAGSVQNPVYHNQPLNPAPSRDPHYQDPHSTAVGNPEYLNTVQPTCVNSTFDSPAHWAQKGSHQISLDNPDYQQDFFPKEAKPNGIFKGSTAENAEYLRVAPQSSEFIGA
Description: as §5, §3, §4

Chain of EGFR^L858R/T790M/C797S (P00533 25-1210 T790M/C797S/L858R): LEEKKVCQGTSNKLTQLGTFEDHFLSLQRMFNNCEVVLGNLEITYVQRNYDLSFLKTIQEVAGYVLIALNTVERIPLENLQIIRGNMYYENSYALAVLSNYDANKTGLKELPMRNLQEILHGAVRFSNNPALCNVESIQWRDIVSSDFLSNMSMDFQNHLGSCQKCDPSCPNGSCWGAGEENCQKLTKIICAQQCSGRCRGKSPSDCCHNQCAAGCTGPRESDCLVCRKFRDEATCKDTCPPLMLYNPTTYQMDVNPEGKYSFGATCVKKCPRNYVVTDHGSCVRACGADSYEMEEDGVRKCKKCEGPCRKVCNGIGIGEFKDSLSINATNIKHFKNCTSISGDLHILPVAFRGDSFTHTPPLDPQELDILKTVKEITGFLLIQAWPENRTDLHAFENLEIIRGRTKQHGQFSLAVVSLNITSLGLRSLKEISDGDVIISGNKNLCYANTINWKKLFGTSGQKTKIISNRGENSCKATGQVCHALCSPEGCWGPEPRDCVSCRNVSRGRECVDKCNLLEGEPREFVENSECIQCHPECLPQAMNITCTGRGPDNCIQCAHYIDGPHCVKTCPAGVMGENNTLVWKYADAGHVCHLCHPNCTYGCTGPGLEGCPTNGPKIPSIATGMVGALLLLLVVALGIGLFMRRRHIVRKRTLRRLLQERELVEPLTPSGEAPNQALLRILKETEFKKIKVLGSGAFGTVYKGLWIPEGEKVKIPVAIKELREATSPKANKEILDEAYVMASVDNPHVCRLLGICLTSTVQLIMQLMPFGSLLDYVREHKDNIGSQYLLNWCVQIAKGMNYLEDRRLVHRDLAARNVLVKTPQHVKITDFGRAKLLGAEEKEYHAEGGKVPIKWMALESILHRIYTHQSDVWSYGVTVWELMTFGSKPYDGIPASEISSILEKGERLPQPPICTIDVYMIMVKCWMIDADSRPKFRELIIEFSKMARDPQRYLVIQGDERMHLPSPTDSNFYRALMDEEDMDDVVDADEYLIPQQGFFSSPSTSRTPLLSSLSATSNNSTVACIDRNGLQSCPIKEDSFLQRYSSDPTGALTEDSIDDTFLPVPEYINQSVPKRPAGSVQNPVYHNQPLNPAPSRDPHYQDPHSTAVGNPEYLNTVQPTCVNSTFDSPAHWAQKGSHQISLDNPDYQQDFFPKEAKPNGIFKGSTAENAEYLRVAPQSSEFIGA

With C[C@H]1CCOc2c(cnn2C)-c2nccc(n2)Nc2cc(c(-c3cc(CN4CCN(C)CC4)n(C)c3)cn2)O1 [(127), (10S)-5,10-dimethyl-13-[1-methyl-5-[(4-methylpiperazin-1-yl)methyl]pyrrol-3-yl]-7,11-dioxa-4,5,15,17,21,22-hexazatetracyclo[16.3.1.1^12,16.0^2,6]tricosa-1(22),2(6),3,12(23),13,15,18,20-octaene] the IC50 [1] was less than 50 nM, the IC50 [2] was less than 50 nM and the IC50 [3] was less than 50 nM. The GI50 [4] was less than 50 nM, the GI50 [5] was less than 50 nM and the GI50 [6] was less than 50 nM.
C[C@H]1CCOc2c(cnn2C)-c2nccc(n2)Nc2cc(c(-c3cnc(N4CCN(C)CC4)c(OCC(F)(F)F)c3)cn2)O1 [(128)] showed an IC50 [1] of less than 50 nM, an IC50 [2] of less than 50 nM and an IC50 [3] of less than 50 nM. The GI50 [4] was less than 50 nM, the GI50 [5] was 50 to 100 nM and the GI50 [6] was 50 to 100 nM.
C[C@H]1CCOc2c(cnn2C)-c2nccc(n2)Nc2cc(c(-c3ccc(N(C)CCN(C)C)cc3)cn2)O1 [(133)] was tested, and the IC50 [1] was less than 50 nM, the IC50 [2] was less than 50 nM and the IC50 [3] was less than 50 nM. The GI50 [4] was less than 50 nM, the GI50 [5] was less than 50 nM and the GI50 [6] was less than 50 nM.
COc1cc(-c2cnc3cc2O[C@@H](C)CCOc2c(cnn2C)-c2nccc(n2)N3)cnc1N1CCN(C)CC1 [(137)] gave an IC50 [1] of less than 50 nM, an IC50 [2] of less than 50 nM and an IC50 [3] of less than 50 nM. It also gave a GI50 [4] of less than 50 nM, a GI50 [5] of less than 50 nM and a GI50 [6] of less than 50 nM.
For C[C@H]1CCOc2c(cnn2C)-c2nccc(n2)Nc2cc(c(-c3ccc(N(C)CCN(C)C)nc3)cn2)O1 [(138)], the IC50 [1] was less than 50 nM, the IC50 [2] was less than 50 nM and the IC50 [3] was less than 50 nM. It also gave a GI50 [4] of less than 50 nM, a GI50 [5] of 50 to 100 nM and a GI50 [6] of 50 to 100 nM.
With C[C@H]1CCOc2c(cnn2C)-c2nccc(n2)Nc2cc(c(-c3cnn(C4CCNCC4)c3)cn2)O1 [(141)] the IC50 [1] was less than 50 nM, the IC50 [2] was less than 50 nM and the IC50 [3] was less than 50 nM. It also gave a GI50 [4] of less than 50 nM, a GI50 [5] of less than 50 nM and a GI50 [6] of less than 50 nM.
Work on C[C@H]1CCOc2c(cnn2C)-c2nccc(n2)Nc2cc(c(-c3cc(CN4CCOCC4)n(C)n3)cn2)O1 [(144)] yielded an IC50 [1] of less than 50 nM, an IC50 [2] of less than 50 nM and an IC50 [3] of less than 50 nM. For the same molecule, the GI50 [4] was less than 50 nM, the GI50 [5] was less than 50 nM and the GI50 [6] was less than 50 nM.
Molecule COC(=O)c1cc(-c2cnc3cc2O[C@@H](C)CCOc2c(cnn2C)-c2nccc(n2)N3)n(C)c1 [(145)] has an IC50 [1] of less than 50 nM, an IC50 [2] of less than 50 nM and an IC50 [3] of 100 to 1000 nM. The GI50 [4] was 100 to 1000 nM, the GI50 [5] was 100 to 1000 nM and the GI50 [6] was 100 to 1000 nM.
C[C@H]1CCOc2c(cnn2C)-c2nccc(n2)Nc2cc(c(-c3ccc(CN4CCN(C)CC4)c(OCC(F)(F)F)c3)cn2)O1 [(146)] showed an IC50 [1] of less than 50 nM, an IC50 [2] of less than 50 nM and an IC50 [3] of less than 50 nM. The GI50 [4] was less than 50 nM, the GI50 [5] was less than 50 nM and the GI50 [6] was less than 50 nM.
Work on COc1cc(-c2cnc3cc2O[C@@H](C)CCOc2c(cnn2C)-c2nccc(n2)N3)ccc1CN1CCN(C)CC1 [(147)] yielded an IC50 [1] of less than 50 nM, an IC50 [2] of less than 50 nM and an IC50 [3] of less than 50 nM. The GI50 [4] was less than 50 nM, the GI50 [5] was less than 50 nM and the GI50 [6] was less than 50 nM.
C[C@H]1CCOc2c(cnn2C)-c2nccc(n2)Nc2cc(c(-c3cccc(NCCN(C)C)c3)cn2)O1 [(148)] showed an IC50 [1] of less than 50 nM, an IC50 [2] of less than 50 nM and an IC50 [3] of less than 50 nM. The GI50 [4] was less than 50 nM, the GI50 [5] was less than 50 nM and the GI50 [6] was less than 50 nM.
Molecule COc1cc(CN2CCN(C)CC2)ccc1-c1cnc2cc1O[C@@H](C)CCOc1c(cnn1C)-c1nccc(n1)N2 [(149)] has an IC50 [1] of less than 50 nM, an IC50 [2] of less than 50 nM and an IC50 [3] of less than 50 nM. The GI50 [4] was less than 50 nM, the GI50 [5] was 50 to 100 nM and the GI50 [6] was less than 50 nM.
CCOc1cc(-c2cnc3cc2O[C@@H](C)CCOc2c(cnn2C)-c2nccc(n2)N3)ccc1CN1CCN(C)CC1 [(150)] was tested, and the IC50 [1] was less than 50 nM, the IC50 [2] was less than 50 nM and the IC50 [3] was less than 50 nM. For the same molecule, the GI50 [4] was less than 50 nM, the GI50 [5] was less than 50 nM and the GI50 [6] was less than 50 nM.
Molecule C[C@H]1CCOc2c(cnn2C)-c2nccc(n2)Nc2cc(c(Cl)cn2)O1 [(151), (10S)-13-chloro-5,10-dimethyl-7,11-dioxa-4,5,15,17,21,22-hexazatetracyclo[16.3.1.112,16.02,6]tricosa-1(22),2(6),3,12(23),13,15,18,20-octaene] has an IC50 [1] of less than 50 nM, an IC50 [2] of less than 50 nM and an IC50 [3] of 50 to 100 nM. For the same molecule, the GI50 [4] was 100 to 1000 nM, the GI50 [5] was 100 to 1000 nM and the GI50 [6] was 100 to 1000 nM.
C[C@H]1CCOc2c(cnn2C)-c2nccc(n2)Nc2cc(c(-c3ccc(N4CCN(C)CC4)nc3)cn2)O1 [(152)] showed an IC50 [1] of less than 50 nM, an IC50 [2] of less than 50 nM and an IC50 [3] of less than 50 nM. For the same molecule, the GI50 [4] was less than 50 nM, the GI50 [5] was less than 50 nM and the GI50 [6] was less than 50 nM.
C[C@H]1CCOc2c(cnn2C)-c2nccc(n2)Nc2cc(ccn2)O1 [(153)] gave an IC50 [1] of less than 50 nM, an IC50 [2] of less than 50 nM and an IC50 [3] of 100 to 1000 nM. It also gave a GI50 [4] of 100 to 1000 nM, a GI50 [5] of 100 to 1000 nM and a GI50 [6] of 100 to 1000 nM.
Work on C[C@H]1CCOc2c(cnn2C)-c2nccc(n2)Nc2cc(c(-c3cccc(CN4CCN(C)CC4)c3)cn2)O1 [(159)] yielded an IC50 [1] of less than 50 nM, an IC50 [2] of less than 50 nM and an IC50 [3] of less than 50 nM. The GI50 [4] was less than 50 nM, the GI50 [5] was less than 50 nM and the GI50 [6] was less than 50 nM.
C[C@H]1CCOc2c(cnn2C)-c2nccc(n2)Nc2cc(c(-c3ccc(CN4CCN(C)CC4)cc3)cn2)O1 [(160)] was tested, and the IC50 [1] was less than 50 nM, the IC50 [2] was less than 50 nM and the IC50 [3] was less than 50 nM. It also gave a GI50 [4] of less than 50 nM, a GI50 [5] of less than 50 nM and a GI50 [6] of less than 50 nM.
For CC1CCOc2c(cnn2C)-c2nccc(n2)Nc2cc(c(-c3ccc(CN4CCN(C)CC4)cc3)cn2)O1 (stereo not drawn) [(169), 5,10-dimethyl-13-[4-[(4-methylpiperazin-1-yl)methyl]phenyl]-7,11-dioxa-4,5,15,17,21,22-hexazatetracyclo[16.3.1.112,16.02,6]tricosa-1(22),2(6),3,12(23),13,15,18,20-octaene], the IC50 [1] was less than 50 nM, the IC50 [2] was less than 50 nM and the IC50 [3] was less than 50 nM. The GI50 [4] was less than 50 nM, the GI50 [5] was less than 50 nM and the GI50 [6] was less than 50 nM.
